This note sets out measurements from patent US20130337564A1, “Treatment of Pluripotent Cells” (Janssen Biotech, Inc., priority 2012, published 2013).

Test [1] concerns human embryonic stem cell line H1. The experiment in a line: Dose titration secondary assay: cell number, H1. The test is classed as cell-based. Particulars: positive control (Wnt3a/Activin A) normalized to 1.000; for activity at 0.156 µM / activity at 0.313 µM / activity at 0.625 µM / activity at 1.25 µM / activity at 2.5 µM / activity at 5 µM / activity at 10 µM: Homo sapiens, Embryonic stem cell. As for the experimental part:
It was important to confirm the activity of hits identified from primary screening and further analyze the range of activity by dose titration. New samples of a selective subset of primary screening hits were obtained as dry powders, solubilized to make fresh stock reagents, and diluted into secondary confirmation assays to evaluate effects on human embryonic stem cells.
Culture of two human embryonic stem cells (H1 and H9) was conducted as described in Example 1. Colonies of cells were maintained in an undifferentiated, pluripotent state on Matrigel™ ([…]) coated polystyrene plastic, using a 1:30 dilution of Matrigel™ in DMEM:F12 to coat the surface. Cells were split by enzymatic passage every four days on average. Passage was performed by exposing cell monolayers to a solution of collagenase (1 mg/ml; Sigma-Aldrich) for 10 to 60 minutes at 37° C. followed by gentle scraping with a pipette tip to recover cell clusters. Clusters were allowed to sediment by gravity, then washed to remove residual collagenase. Cell clusters were split at a 1:3 ratio for maintenance culture or a 1:1 ratio for subsequent assay. The human embryonic stem cell lines were maintained at less than passage 50 and routinely evaluated for normal karyotypic phenotype and absence of mycoplasma contamination.
Cell clusters of the H1 or H9 human embryonic stem cell lines used in the assay were evenly resuspended in culture medium and plated onto Matrigel™-coated 96-well Packard VIEWPLATES (PerkinElmer) in volumes of 100 μl/well. MEF conditioned medium supplemented with 8 ng/ml bFGF was used for initial plating and expansion. Daily feeding was conducted by aspirating spent culture medium from each well and replacing with an equal volume of fresh medium. Cultures were allowed to expand one to three days after plating prior to initiating assay. Plates were maintained at 37° C., 5% CO2 in a humidified box for the duration of assay.
A subset of hits resulting from primary screening was used for follow-up study and subsequent secondary assays. Twenty compounds available as dry powders were solubilized as 10 mM stocks in DMSO and stored dessicated at […] until use Immediately prior to assay, compound stocks were diluted 1:1000 to make 10 μM test compound in DMEM:F12 base medium (Invitrogen) supplemented with 0.5% FCS (HyClone) and 100 ng/ml Activin A (R&D Biosystems). This was further diluted two-fold in series to make a seven point dilution curve for each compound, also in DMEM:F12 base medium with 0.5% FCS and 100 ng/ml Activin A.
Assay was initiated by aspirating culture medium from cell monolayers in each well followed by three washes in PBS to remove residual growth factors and serum. Test volumes of 100 μl per well were added back containing medium with 0.5% FCS and different concentrations of inhibitor compounds with 100 ng/ml Activin A, without Wnt3a. Positive control wells contained the same base medium with 0.5% FCS and with 20 ng/ml Wnt3a (R&D Biosystems) in the absence of test compound. Negative control wells contained the same base medium with 0.5% FCS, in the absence of Activin A, Wnt3a, or test compound. Assay wells were aspirated and fed again with identical concentrations of test compound or control solutions on day 2 of assay. On days 3 and 4, all assay wells were aspirated and fed with DMEM:F12 supplemented with 2% FCS and 100 ng/ml Activin A in the absence of both test compound or Wnt3a. Parallel negative control wells were maintained on days 3 and 4 in DMEM:F12 base medium with 2% FCS.
At the end of culture, cells in 96-well plates were washed twice with PBS then fixed with 4% paraformaldehyde at room temperature for 20 minutes, washed three times more with PBS, and then permeabilized with 0.5% Triton X-100 for 20 minutes at room temperature. After fixing and permeabilizing, cells were washed again three times with PBS and then blocked with 4% chicken serum (Invitrogen) in PBS for 30 minutes at room temperature. […]

Test [2] relates to human embryonic stem cells (H9 or H1 lines). The experiment in a line: Plate reader (MTS) proliferation assay. The test is classed as cell-based. Particulars: for activity at 10 µM: Homo sapiens, Embryonic stem cell, 96 h; for Average: average of replicate raw data. The essentials: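 H9 or H1 cells on Matrigel, washed, then given DMEM:F12 with 0.5% FCS, 100 ng/ml activin A and 10 μM compound (days 1–2), then 2% FCS plus activin A (days 3–4). MTS added day 4, OD490 read after 1.5–4 h at 37 °C; triplicates as percent of activin A/Wnt3a control.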

Where [3] appears, read: 10 μM test compound with 100 ng/ml activin A on days 1-2, MTS OD490 on day 4, vs Activin A/Wnt3a positive control, strong and moderate hits.

Values joined by “and” are separate entries in the source; they are usually repeats but may differ in a detail not shown here. Identical values can stand only once.

As to `CN(C)c1cccc(-n2cc(C3=C(c4nn(CCO)c5ccccc45)C(=O)NC3=O)c3ccccc32)c1` [Compound 145, 3-{1-[3-(Dimethylamino)phenyl]-1H-indol-3-yl}-4-[1-(2-hydroxyethyl)-1H-indazol-3-yl]-1H-pyrrole-2,5-dione], the activity at 0.156 µM in test [1] (Conc 0.156 μM) came to 46.9%. The activity at 0.313 µM in test [1] (Conc 0.313 μM) stood at 66.5%. Moreover, in test [1] (Conc 0.625 μM), the activity at 0.625 µM is 71.3%. The activity at 1.25 µM in test [1] (Conc 1.25 μM) was 128%. The activity at 2.5 µM in test [1] (Conc 2.5 μM) was 135%. The activity at 5 µM in test [1] (Conc 5 μM) was found to be 33.9%. Moreover, the activity at 10 µM worked out at 2.1% in test [1] (Conc 10 μM) and 61.1% in test [2] (setting [3]). In test [2], the Average is 0.9191.

For the compound `O=C1NC(=O)C(c2cn(CCOCCOCCNC3CCCc4ccccc43)c3ccccc23)=C1c1cn(CCNC2CCCc3ccccc32)c2ccccc12` (stereo not shown) [Compound 144, 3-{1-[2-(1,2,3,4-Tetrahydronaphthalen-1-ylamino)ethyl]-1H-indol-3-yl}-4-(1-{2-[(2-{[2-(1,2,3,4-tetrahydronaphthalen-1-ylamino)ethyl]oxy}ethyl)oxy]ethyl}-1H-indol-3-yl)-1H-pyrrole-2,5-dione], the activity at 0.156 µM in test [1] (Conc 0.156 μM) was 59.4%. For the same compound, the activity at 0.313 µM in test [1] (Conc 0.313 μM) is 73.4%. For the same compound, the activity at 0.625 µM in test [1] (Conc 0.625 μM) is 89.5%. Further, the activity at 1.25 µM in test [1] (Conc 1.25 μM) stood at 55.2%. In test [1] (Conc 2.5 μM), the activity at 2.5 µM was determined as 19.2%. The activity at 5 µM in test [1] (Conc 5 μM) is 0%. The activity at 10 µM stood at 0% in test [1] (Conc 10 μM) and 84% in test [2] (setting [3]). This compound also showed an Average in test [2] of 1.2160.

`O=C1NC(=O)C(c2nn(CCCO)c3ccccc23)=C1c1cn(-c2cccnc2)c2ccc(Cl)cc12` [Compound 52, 3-(5-Chloro-1-pyridin-3-yl-1H-indol-3-yl)-4-[1-(3-hydroxypropyl)-1H-indazol-3-yl]-1H-pyrrole-2,5-dione]: in test [1] (Conc 0.156 μM), the activity at 0.156 µM stood at 82.6%. Besides, the activity at 0.313 µM in test [1] (Conc 0.313 μM) is 103%. In addition, in test [1] (Conc 0.625 μM), the activity at 0.625 µM stood at 130%. The activity at 1.25 µM in test [1] (Conc 1.25 μM) stood at 145%. Also, the activity at 2.5 µM in test [1] (Conc 2.5 μM) was found to be 110%. Also, the activity at 5 µM in test [1] (Conc 5 μM) amounted to 2.4%. The values for the activity at 10 µM in test [1] (Conc 10 μM) and in test [2] (setting [3]) were 0% and 136%, respectively. The Average in test [2] is 1.0617.

For the compound `OCCC#Cc1nc(-c2ccc(F)cc2)c(-c2ccncc2)n1CCCc1ccccc1` [Compound 158, 4-[4-(4-Fluorophenyl)-1-(3-phenylpropyl)-5-pyridin-4-yl-1H-imidazol-2-yl]but-3-yn-1-ol], the activity at 0.156 µM in test [1] (Conc 0.156 μM) was found to be 110%. Besides, the activity at 0.313 µM in test [1] (Conc 0.313 μM) was 122%. For the same compound, the activity at 0.625 µM in test [1] (Conc 0.625 μM) was 123%. Also, the activity at 1.25 µM in test [1] (Conc 1.25 μM) is 116%. In test [1] (Conc 2.5 μM), the activity at 2.5 µM amounted to 102%. Besides, in test [1] (Conc 5 μM), the activity at 5 µM came to 90.5%. Further, the activity at 10 µM was 5.3% in test [1] (Conc 10 μM) and 84.7% in test [2] (setting [3]). The Average in test [2] amounted to 1.2242.

With `CC(C)(O)CCn1nc(C2=C(c3cn(-c4cccnc4)c4ccccc34)C(=O)NC2=O)c2ccccc21` [Compound 223, 3-[1-(3-Hydroxy-3-methylbutyl)-1H-indazol-3-yl]-4-(1-pyridin-3-yl-1H-indol-3-yl)-1H-pyrrole-2,5-dione], the activity at 0.156 µM in test [1] (Conc 0.156 μM) came out at 77.6%. In addition, the activity at 0.313 µM in test [1] (Conc 0.313 μM) came out at 102%. The activity at 0.625 µM in test [1] (Conc 0.625 μM) was determined as 103%. Besides, the activity at 1.25 µM in test [1] (Conc 1.25 μM) was found to be 116%. The activity at 2.5 µM in test [1] (Conc 2.5 μM) came to 132%. Besides, the activity at 5 µM in test [1] (Conc 5 μM) came to 135%. Besides, the activity at 10 µM came out at 128% in test [1] (Conc 10 μM) and 129% in test [2] (setting [3]). The Average in test [2] is 1.7982.

`CN(C)c1ccc(-n2cc(C3=C(c4nn(CCO)c5ccccc45)C(=O)NC3=O)c3cc(Cl)ccc32)cn1` [Compound 148, 3-{5-Chloro-1-[6-(dimethylamino)pyridin-3-yl]-1H-indol-3-yl}-4-[1-(2-hydroxyethyl)-1H-indazol-3-yl]-1H-pyrrole-2,5-dione]: the activity at 0.156 µM in test [1] (Conc 0.156 μM) amounted to 121%. Also, in test [1] (Conc 0.313 μM), the activity at 0.313 µM worked out at 121%. Besides, the activity at 0.625 µM in test [1] (Conc 0.625 μM) amounted to 136%. Further, in test [1] (Conc 1.25 μM), the activity at 1.25 µM was determined as 165%. Besides, in test [1] (Conc 2.5 μM), the activity at 2.5 µM was 172%. Besides, the activity at 5 µM in test [1] (Conc 5 μM) is 101%. The activity at 10 µM came out at 0.2% in test [1] (Conc 10 μM) and 106% in test [2] (setting [3]). In addition, the Average in test [2] stood at 1.4937.

As for `O=C1NC(=O)C(c2cn(-c3cccnc3)c3ccccc23)=C1c1cn(CCO)c2ccccc12` [Compound 206, 3-[1-(2-Hydroxyethyl)-1H-indol-3-yl]-4-(1-pyridin-3-yl-1H-indol-3-yl)-1H-pyrrole-2,5-dione], the activity at 0.156 µM in test [1] (Conc 0.156 μM) turned out to be 80.4%. The activity at 0.313 µM in test [1] (Conc 0.313 μM) was 93.1%. The activity at 0.625 µM in test [1] (Conc 0.625 μM) was determined as 109%. Also, the activity at 1.25 µM in test [1] (Conc 1.25 μM) stood at 112%. Also, the activity at 2.5 µM in test [1] (Conc 2.5 μM) stood at 102%. Besides, the activity at 5 µM in test [1] (Conc 5 μM) came out at 116%. The figures for the activity at 10 µM in test [1] (Conc 10 μM) and in test [2] (setting [3]) were 3.9% and 108%, respectively. This compound also gave an Average in test [2] of 1.7251.

Consider `CN1CCN(C)CCn2cc(c3ccccc32)C2=C(C(=O)NC2=O)c2cn(c3ccccc23)CC1` [Compound 111, 8,11-Dimethyl-6,7,8,9,10,11,12,13-octahydro-20H-5,23:14,19-di(metheno)dibenzo[k,q]pyrrolo[3,4-n][1,4,7,10]tetraazacyclooctadecine-20,22(21H)-dione], for which the Cell number in test [1] (Conc 0.156 μM) stood at 0.659; in test [1] (Conc 0.313 μM), 0.785; in test [1] (Conc 0.625 μM), 0.801; in test [1] (Conc 1.25 μM) it was 0.914; in test [1] (Conc 2.5 μM) it was 1.031; in test [1] (Conc 5 μM) it was 1.128. This compound also showed a Cell number in test [1] (Conc 10 μM) of 0.412. The “% Control Value (proliferation)” value in test [2] (setting [3]) was 128.7%. This compound had an Average in test [2] of 0.8784. For the same compound, the “Raw Data” value in test [2] (replicate wells, plate reader proliferation screen of GSK-3B inhibitors) is 1.0689 and 0.6879.
